Experimental data as given in the NIST ThermoML archive (doi:10.1016/j.jct.2008.03.013).
Several values for one entry are separate records, joined by “and”; a condition that tells them apart may be missing. Equal entries are not always repeated.

What was measured:
[1] = refractive index (Na D-line) (dimensionless); xn = mol fraction of the nth substance listed; details: 298.15 K, 100 kPa, Liquid, Standard Abbe refractometry
[2] = xn = mol fraction of the nth substance listed; details: 100 kPa, Liquid
[3] = 100 kPa, Liquid
[4] = refractive index (Na D-line) (dimensionless); details: 298.15 K; 101.33 kPa; Liquid; Standard Abbe refractometry

CCCCn1cc[n+](C)c1.COS(=O)(=O)[O-] [1-butyl-3-methylimidazolium methyl sulfate] + O
[1]
Details	refractive index
x2 = 0	1.47792
x2 = 0.0325	1.47746
x2 = 0.1703	1.47584
x2 = 0.2989	1.47341
x2 = 0.4104	1.47032
x2 = 0.4774	1.46814
x2 = 0.5886	1.463
x2 = 0.6859	1.45603
x2 = 0.7856	1.44395
x2 = 0.8899	1.41842
x2 = 0.9466	1.38937

[2]
Details	mass density, 298.15 K [kg/m3]	mass density, 313.15 K [kg/m3]	mass density, 328.15 K [kg/m3]	viscosity, 298.15 K [mPa·s]	viscosity, 313.15 K [mPa·s]	viscosity, 328.15 K [mPa·s]
x2 = 0	1213.43	1203.48	1193.59	182.3	84.8	45.35
x2 = 0.0325	1212.91	1202.96	1193.03	177	82.8	44.8
x2 = 0.1703	1211.05	1201.02	1190.99	137	68.9	41.09
x2 = 0.2989	1208.33	1198.3	1188.25	95.4	51.5	33.85
x2 = 0.4104	1204.62	1194.57	1184.54	65.5	35.77	23.52
x2 = 0.4774	1201.72	1191.55	1181.33	50.2	27.55	18.25
x2 = 0.5886	1194.68	1184.43	1174.25	31.93	18.4	11.98
x2 = 0.6859	1185.23	1174.8	1164.26	20.28	12.03	7.862
x2 = 0.7856	1168.21	1157.61	1146.83	11.42	7.027	4.738
x2 = 0.8899	1130.52	1120.17	1109.5	5.071	3.296	2.306
x2 = 0.9466	1085.81	1076.83	1067.17	2.597	1.763	1.281

CCCCn1cc[n+](C)c1.COS(=O)(=O)[O-] [1-butyl-3-methylimidazolium methyl sulfate]
[3]
Details	mass density [kg/m3]	viscosity
298.15 K	1213.43	182.3 mPa·s
313.15 K	1203.48	84.8 mPa·s and 84.7 mPa·s
328.15 K	1193.59	45.35 mPa·s

Details	refractive index
[4]	1.47792

CCO [ethanol]
[3]
Details	mass density [kg/m3]	viscosity [mPa·s]
298.15 K	785.46	1.082
313.15 K	772	0.827
328.15 K	758.55	0.641

Details	refractive index
[4]	1.36023

CCO [ethanol] + CCCCn1cc[n+](C)c1.COS(=O)(=O)[O-]
Details	refractive index
[1], x1 = 1	1.36023

[2], x1 = 1
Details	mass density [kg/m3]	viscosity [mPa·s]
298.15 K	785.46	1.082
313.15 K	772	0.827
328.15 K	758.55	0.641
